Here are results for three compounds from patent US5616615A, “Enaminone esters” (priority 1995, dated 1997).

Structures are written as SMILES. Read-outs that look alike come from different tables or passages of the source.

For orientation: ED50 means the dose that gives a 50% effect, or the effect in half of the subjects.

For data set [1] the following is noted: Kase et al., Jap. J. Pharmacol. 1974; cited from earlier work.
The subject of data set [2] is Maximal electroshock seizures. Kind of data set: MES maximal electroshock seizure test, mice ip. The class given is in vivo. Also noted: TPE (time of peak effect), activity: unit not given here. Conditions: ip; for responders at 10 mg/kg: read-out: MES, animals protected/tested (converted); for responders at 300 mg/kg: read-out: MES, animals protected/tested. Here is the method:
Three tests were performed:
1. MES--Electroshock Seizure Test
(§1) Maximal electroshock seizures are elicited with a 60-cycle alternating current of 50 mA intensity (5-7 times that necessary to elicit minimal electroshock seizures) delivered via corneal electrodes for 0.2 seconds. A drop of 0.9% saline is instilled in the eye prior to application of the electrodes in order to […].

The subject of data set [3] is Subcutaneous Pentylenetetrazol seizure. As to the kind of experiment: sc Met subcutaneous pentylenetetrazol (Metrazol) seizure test, mice. The settings on record: Mus musculus, sc; for responders at 10 mg/kg: read-out: scMet, animals protected/tested; for responders at 300 mg/kg: read-out: scMet, animals protected/tested (converted). It counts as in vivo.
A short description of data set [4]: in vivo. The settings on record: mouse, in vivo, ip.
Another data set relates to electroshock seizures. Kind of data set: MES maximal electroshock test, rats ip. The class given is in vivo. Conditions: 100 mg/kg.
Text: as §1

For data set [5], the system named is Maximal electroshock seizures. As to the kind of experiment: Phase VI oral MES test, rats. It counts as in vivo. The settings on record: oral; for responders at 50 mg/kg: Rattus norvegicus, read-out: MES, animals protected/tested (converted).
Text: as §1
(§2) This oral screen is designated as phase VI.

Data set [6] is described as follows: in vivo. The settings on record: rat, po.
Text: as §2

Another data set has as its system Corneal Kindled rats. Kind of data set: Corneal kindling. It counts as in vivo. The protocol:
Corneal kindling studies were performed in our laboratories on 12 and 27 and the results are shown in Tables XI and XII and FIGS. 1A and 1B. Comparative data for the commercial products are included. Seizures evoked in electroshock-kindled rats provide a suitable model consistent with complex partial seizures evolving into generalized motor seizures in humans.
^a Rats kindled to Stage 5. Endpoint was reduction from Stage 5 to […]

Data set [7] concerns Amygdala Kindled Seizures. As to the kind of experiment: Suppression of amygdala kindled seizures. The class given is in vivo. Here is the method: Compounds 12 and 27 were evaluated in our laboratory for suppression of amygdala kindled seizures.
Another data set concerns bicuculline. Kind of data set: Phase V quantification against bicuculline. The class given is in vivo. Conditions: 12.5, 25, 50 and 100 mg/kg. The protocol:
(§3) Both 12 and 27 were evaluated in Phase V of the ADD Program evaluation scheme. Phase V provides quantification against bicuculline, picrotoxin, pentylenetetrazol, and strychnine. This screen provides information on the mechanism of action of the anticonvulsant activity. Bicuculline, picrotoxin, and strychnine correspond to GABA inhibitory function, chloride channel inhibition and inhibition by glycine respectively.

The next data set concerns picrotoxin. As to the kind of experiment: Phase V quantification against picrotoxin. The class given is in vivo. Conditions: 12.5, 25, 50 and 100 mg/kg. Here is the method: as §3
For the next data set, the system named is pentylenetetrazol. Kind of data set: Phase V quantification against pentylenetetrazol. The settings on record: 12.5, 25, 50 and 100 mg/kg. It counts as in vivo. The protocol: as §3
The next data set relates to strychnine. Kind of data set: Phase V quantification against strychnine. The class given is in vivo. Conditions: 12.5, 25, 50 and 100 mg/kg. The protocol:
as §3

In the next data set the test system is seizures. As to the kind of experiment: Anticonvulsant evaluation (ASP phase I / overall). It counts as in vivo, mice. In a few lines:
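Male Carworth Farms #1 mice; maximal electroshock seizures elicited by 60-cycle AC, 50 mA, 0.2 s via corneal electrodes after a drop of 0.9% saline in the eye. Animals observed for 30 minutes.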

Another data set is described as follows: Neurotoxicity, rats ip. The settings on record: 100 mg/kg.

Description for Neurotoxicity, rats ip: The rotorod test is used to elevate neurotoxicity. The animal is placed on a 1 inch diameter knurled plastic rod rotating at 6 rpm. […] Neurologic toxicity is defined as the failure of the animal to remain on the rod for 1 minute and the results are expressed as the number of animals protected/the number of animals tested.
The toxicity evaluation for the commercial agents as previously indicated was based on the onset of ataxia.

In the case of `CC1(C)CC(=O)C(CN2CCCCC2)=C(Nc2ccccc2Cl)C1` [MK 1-203, 5,5-dimethyl-3-(o-chloro)phenylamino-2-(N-piperidinylmethyl)cyclohex-2-ene-1-one], the “pharmacological actions” value in [1] was “potent analgesics with morphine-like, as well as anticonvulsant and papaverine-like, actions”.

With `COc1cccc(C2=C(CN(C)CCc3ccccc3)C(=O)CC(C)(C)C2)c1` [MK 1-907, 5,5-dimethyl-3-(m-methoxy)phenyl-2-N-methyl-N-phenethylaminomethylcyclohex-2-ene-1-one], the “pharmacological actions” value in [1] was “potent analgesics with morphine-like, as well as anticonvulsant and papaverine-like, actions”.

Turning to `COC(=O)C1C(=O)C=C(NCc2ccccc2)CC1C` (stereo not drawn) [Compound 12, Methyl 4-(benzyl)amino-6-methyl-2-oxocyclohex-3-en-1-oate], the responders at 10 mg/kg is 66.7% in [2] (Mus musculus, 0.5 h, 30 min); 0% in data set [2] (Mus musculus, 4 h, 4 h); 10% in [3] (0.5 h, 30 min); 10% in data set [3] (4 h, 4 h). Besides, the responders at 300 mg/kg in data set [2] (Mus musculus, 0.5 h, 30 min) is 100%; in data set [2] (Mus musculus, 4 h, 4 h), 0%; in data set [3] (0.5 h, 30 min) it was 0%; in [3] (4 h, 4 h), 0%. Further, the ED50 was found to be 64.7 mg/kg in data set [2] (Mus musculus, Phase II, time of peak effect); 26.8 mg/kg in data set [5] (Phase VI, rat); 41.9 mg/kg in the data set with Corneal Kindled rats (Rattus norvegicus, po, 0.5 h, read-out: ED50 (reduction from Stage 5 to Stage 4)). Moreover, in [2] (Phase II), the “TPE (time of peak effect), activity” value is 0.5. Further, the TD50 in the data set “in vivo [4]” and in the data set “in vivo [6]” was over 500 mg/kg in each case. The “TPE (time of peak effect), toxicity” value in “in vivo [4]” amounted to 1. Besides, the selectivity ratio in “in vivo [4]” turned out to be 7.73; in the data set “in vivo [6]” it was 18.7. Moreover, the “MES, animals protected/tested” value in the data set on electroshock seizures (0.25 h (Table X)) is 4/4; with electroshock seizures (0.50 h (Table X)), 4/4; in the data set on electroshock seizures (1.00 h (Table X)) it was 4/4; in the data set with electroshock seizures (2.00 h (Table X)), 4/4; with electroshock seizures (4.00 h (Table X)) it was 3/4. Also, the responders at 50 mg/kg in data set [5] (0.5 h, 0.50 h) was 100%; in data set [5] (0.25 h), 50%; in [5] (1.00 h) it was 75%; in data set [5] (2.00 h), 50%; in data set [5] (4.00 h) it was 50%. Also, the “Tox, animals toxic/tested” value is on record as 0/4 in “in vivo [6]” (50 mg/kg); 0/4 in “Neurotoxicity, rats ip” (0.25 h (Table X)); 0/4 in the data set “Neurotoxicity, rats ip” (0.50 h (Table X)); 0/4 in the data set “Neurotoxicity, rats ip” (1.00 h (Table X)); 0/4 in the data set “Neurotoxicity, rats ip” (2.00 h (Table X)); 0/4 in “Neurotoxicity, rats ip” (4.00 h (Table X)). The “% Reduction” value is 17% in the data set on Corneal Kindled rats (50 mg/kg), 23% in the data set with Corneal Kindled rats (60 mg/kg) and 75% in the data set on Corneal Kindled rats (75 mg/kg). In addition, the “Afterdischarge Amygdala: Duration” value in data set [7] (500 mg/kg) turned out to be 73.9 s. Further, the “Afterdischarge Cortex: Duration” value in [7] (500 mg/kg) was determined as 78.9 s. In addition, in [7] (500 mg/kg), the “Afterdischarge Cortex: Latency” value is listed as 2.8 s. Further, in data set [7] (500 mg/kg), the “Behavioral Seizure: Duration” value is on record as 79.5 s. Also, in data set [7] (500 mg/kg), the “Behavioral Seizure: Latency” value is reported as 2.1 s. Besides, the “Forelimb Clonus: Duration” value in data set [7] (500 mg/kg) was 44.2 s. For the same compound, the “Forelimb Clonus: Latency” value in [7] (500 mg/kg) was determined as 9.3 s. For the same compound, the “Seizure Stage” value in [7] (500 mg/kg) is on record as 5.0. Besides, the “suppression of amygdala kindled seizures” value in data set [7] (in vivo) is listed as “no significant activity”. The “protection against bicuculline” value in the data set with bicuculline was “uniformly inactive”. For the same compound, in the data set with picrotoxin, the “protection against picrotoxin” value is “uniformly inactive”. For the same compound, the “protection against pentylenetetrazol” value in the data set on pentylenetetrazol was “uniformly inactive”. The “protection against strychnine” value in the data set on strychnine is “uniformly inactive”. Besides, the minimal effective dose with seizures (Mus musculus, ip, Phase I, read-out: ASP Classification) is under 100 mg/kg. Moreover, the “anticonvulsant activity” value in the data set with seizures (mouse, in vivo) was “highly active”. Moreover, in the data set “Neurotoxicity, rats ip” (ip, four hour evaluation), the “toxicity” value is given as “No toxicity was noted”.
